Laboratory results published in article PMC6033213, “Structurally simple synthetic 1, 4-disubstituted piperidines with high selectivity for resistant Plasmodium falciparum” (BMC Pharmacology & Toxicology, 2018).
Converted amounts (≈) assume the structure as drawn. Like-named read-outs stand apart in the source and are kept apart here.

How the values were obtained:
P. falciparum 3D7 = experiment: Secondary screen: parasite growth inhibition by parasite lactate dehydrogenase (pLDH) assay, 3D7; assay type: cell-based, Plasmodium falciparum; design: key to Antiplasmodial activity class on 3D7: active, IC50 < 5 μg/mL; moderately active: 5 μg/mL ≤ IC50 ≤ 10 μg/mL; weakly active: IC50 ≥ 10 μg/mL
Description: (§1) Two Plasmodium falciparum parasite strains were obtained from MR4 (Manassas, Virginia, USA) and stored in liquid nitrogen. The 3D7 (MRA-102) strain is chloroquine- sensitive while Dd2 is a multidrug resistant clone of the W2 strain with resistance to chloroquine, quinine, mefloquine, sulfadoxine and pyrimethamine. Parasite stocks were thawed, grown and maintained in continuous culture by the candle jar technique with some modifications. The culture consisted of 4% hematocrit suspension of human O+ erythrocytes in RPMI-1640 medium (10.43 g/L supplemented with 0.01 mg/mL gentamycin, 25 mM Hepes buffer, 25 mM NaHCO3) and 5 g Albumax II. All culture reagents were obtained from Sigma-Aldrich Inc. (Germany) except for Albumax II (Gibco; Invitrogen, USA). Cultures were incubated at 37 °C in 5% CO2.
(§2) After incubation the plate was frozen at − 20 °C for the parasite lactate dehydrogenase (pLDH) assay.
(§3) The reagent preparation and assay were done as described. The plates were subjected to 3 freeze-thaw cycles to haemolyze the red blood cells. One hundred microlitre (100 μL) of Malstat reagent was added to each required well of a fresh microtitre plate followed by 20 μL of culture. Then 25 μL of nitroblue tetrazolium/phenazine ethosulfate (NBT/PES) solution was added initiating the reaction. The plates were then incubated for an hour in the dark and optical density (OD) measured at 650 nm (Emax-Molecular Devices Corporation, California, USA).
(§4) For the parasite lactate dehydrogenase assay, the background OD of blank wells containing non parasitized red blood cells was subtracted from values of all test wells. OD values from control wells void of test compound represented the maximum pLDH activity. The OD values obtained were used to determine the IC50, and IC90 values using the software IC Method IC Estimator V1.2 [18], an online calculator of IC values. Each assay was done twice in duplicates and the 4 IC50 or CC50 values obtained were pooled together and expressed as mean IC ± S.D.

P. falciparum Dd2 [1] = experiment: Secondary screen: parasite growth inhibition by parasite lactate dehydrogenase (pLDH) assay, Dd2; assay type: cell-based, Plasmodium falciparum; design: key to Antiplasmodial activity class on Dd2: active, IC50 < 5 μg/mL; moderately active: 5 μg/mL ≤ IC50 ≤ 10 μg/mL; weakly active: IC50 ≥ 10 μg/mL
Description: as §1, §2, §3, §4

P. falciparum Dd2 [2] = experiment: Primary screen: in vitro parasite growth inhibition at a single concentration, fluorescence microscopy with acridine orange; assay type: cell-based, Plasmodium falciparum; settings: 40 μg/mL, 48 h, Dd2 chloroquine-resistant strain; for inhibition at 40 µg/mL: Plasmodium falciparum
Description: as §1
A primary screen for antiplasmodial activity at a single concentration was performed against Dd2 as described with some modifications, to identify active compounds. Stock solutions of compound (1 mg/mL) was initially dissolved in dimethylsulfoxide (DMSO), then gentamycin-free incomplete medium (without Albumax II) added giving 2% final DMSO; the solutions were sterilized and stored. The positive control solutions (artemether and quinine at 5 μg/mL) were prepared similarly. The compounds were tested at a final concentration of 40 μg/mL in duplicate in a 96 well microtitre plate (100 μL per well), followed by 100 μL of 1% parasitized blood. Positive and negative controls (no drug) were included. The plate was incubated under the same culture conditions as above for 48 h and antiplasmodial activity determined by fluorescence microscopy (Leitz Wetzlar, Germany) with acridine orange stain at × 40 magnification under oil immersion. The number of infected erythrocytes (Ei) was counted in 20 monolayer fields (approximately 1500 cells per field) and the percentage parasitaemia was calculated using the formula:1 %parasitaemia=∑Ei/30,000×100
The percentage inhibition per concentration was then obtained using the formula below:2 percentage%inhibition=%parasitaemia of control well‐%parasitaemia of test well/%parasitaemia of control well×100

[3] = Cytotoxicity test, MTT/formazan assay; assay type: cell-based, monkey; settings: monkey, LLC-MK2 monkey kidney epithelial cells; LLC-MK2 cells, 72 h, MTT/formazan
Experimental: (§5) This was done on monkey kidney epithelial cells, LLC-MK2, (ATCC, USA) as described except for use of same culture medium and conditions for P falciparum above. The cells, 10,000 in 100 μL medium per well, were cultured for 24 h to become confluent and attached to the bottom of the well and the medium replaced with 100 μL of fresh medium. […] A negative control without test substance was included. The plates were incubated for 72 h at 37 °C in 5% CO2 and cell viability were determined using microscopy to observe dead cells which appeared dark and deformed. This was followed by the MTT/formazan assay as described above with slight modification. The CC50 values (50% cytotoxic concentration) for each compound was obtained using Microsoft excel 2007. The selectivity index (SI) was calculated using the formula:3 SI=CC50onLLC‐MK2cells/IC50onP.falciparum
as §4

[4] = test system: LLC-MK2 monkey kidney epithelial cells; experiment: Cytotoxicity test, MTT/formazan assay; assay type: cell-based; settings: for SI on 3D7: CC50 on LLC-MK2 cells/IC50 on P. falciparum 3D7; for SI on Dd2: CC50 on LLC-MK2 cells/IC50 on P. falciparum Dd2; for Mean SI: mean of the Selectivity Indices of the 3D7 and Dd2 parasite strains
Experimental: as §5, §4

[5] = Plasmodium falciparum, 3D7 chloroquine-sensitive strain, pLDH assay, mean ± S.D., read-out: IC50
[6] = Plasmodium falciparum, Dd2 chloroquine-resistant strain, pLDH assay, mean ± S.D., read-out: IC50
[7] = Plasmodium falciparum, Dd2 chloroquine-resistant strain, pLDH assay, mean ± S.D., read-out: IC90
[8] = Plasmodium falciparum, 3D7 chloroquine-sensitive strain, pLDH assay, mean ± S.D., read-out: IC90
[9] = Plasmodium falciparum, 3D7 strain, class by IC50, read-out: Antiplasmodial activity class on 3D7
[10] = Plasmodium falciparum, Dd2 strain, class by IC50, read-out: Antiplasmodial activity class on Dd2
[11] = 3D7 chloroquine-sensitive strain, pLDH assay, mean ± S.D.
[12] = Dd2 chloroquine-resistant strain, pLDH assay, mean ± S.D.

Compound	IC50 (P. falciparum 3D7; [5]) [µg/mL]	IC50 (P. falciparum Dd2 [1]; [6]) [µg/mL]	IC90 (P. falciparum Dd2 [1]; [7]) [µg/mL]	inhibition at 40 µg/mL (P. falciparum Dd2 [2]) [%]	IC90 (P. falciparum 3D7; [8]) [µg/mL]	IC50 (P. falciparum 3D7; [9]) [µg/mL]	IC50 (P. falciparum Dd2 [1]; [10]) [µg/mL]	CC50 at 72 h [3] [µg/mL]	SI on 3D7 [4]	SI on Dd2 [4]	Mean SI [4]	Antiplasmodial activity class on 3D7 (P. falciparum 3D7; 3D7 strain, class by IC50)	Antiplasmodial activity class on Dd2 (P. falciparum Dd2 [1]; Dd2 strain, class by IC50)	Inhibition (%) of P. falciparum Dd2 growth (P. falciparum Dd2 [2])	IC50 (P. falciparum 3D7; [11]) [µg/mL]	IC90 (P. falciparum 3D7; [11]) [µg/mL]	IC50 (P. falciparum Dd2 [1]; [12]) [µg/mL]	IC90 (P. falciparum Dd2 [1]; [12]) [µg/mL]
CO[C@H]1O[C@@H]2O[C@@]3(C)CC[C@H]4[C@H](C)CC[C@@H]([C@H]1C)[C@@]24OO3 [Art, artemether, reference compound]	0.045 (≈ 0.151 µM)	0.039 (≈ 0.131 µM)	0.046 (≈ 0.154 µM)	–	–	–	–	–	–	–	–	–	–	–	–	–	–	–
O=C(c1ccc(F)cc1)C1CCN(Cc2ccc(F)cc2)CC1 [Compound 1, [1-(4-fluorobenzyl)piperidin-4-yl] [4-fluorophenyl] methanone]	8.45 ± 2.11 (≈ 26.8 µM)	5.69 ± 2.38 (≈ 18 µM)	27.6 ± 0.78 (≈ 87.5 µM)	83.2	17.9 ± 0.18 (≈ 56.6 µM)	5 to 10 (≈ 15.9 to 31.7 µM)	5 to 10 (≈ 15.9 to 31.7 µM)	188 (≈ 595 µM)	22.17	32.91	27.54 ± 7.59	–	–	–	–	–	–	–
O=C(c1ccc(F)cc1)C1CCN(Cc2ccc(Cl)c(Cl)c2)CC1 [Compound 2, [1-(3,4-dichlorobenzyl)piperidin-4-yl] [4-fluorophenyl] methanone]	4.3 ± 3.75 (≈ 11.7 µM)	5.97 ± 0.02 (≈ 16.3 µM)	24.9 ± 4.14 (≈ 67.9 µM)	82.7	17.61 ± 0.06 (≈ 48.1 µM)	–	5 to 10 (≈ 13.7 to 27.3 µM)	188 (≈ 512 µM)	43.51	31.37	37.44 ± 8.58	active	–	–	–	–	–	–
O=C(c1ccc(F)cc1)C1CCN(Cc2ccc(Cl)cc2)CC1 [Compound 3, [1-(4-chlorobenzyl)piperidin-4-yl] [4-fluorophenyl] methanone]	3.21 ± 0.21 (≈ 9.67 µM)	4.12 ± 1.28 (≈ 12.4 µM)	32.4 ± 0.67 (≈ 97.6 µM)	56.6	17.9 ± 2.39 (≈ 53.9 µM)	–	–	62.5 (≈ 188 µM)	–	–	17.31 ± 3.0	active	active	–	–	–	–	–
O=C(c1ccc(F)cc1)C1CCN(Cc2ccccc2[N+](=O)[O-])CC1 [Compound 4, [1-(2-nitrobenzyl)piperidin-4-yl] [4-fluorophenyl] methanone]	–	–	–	27.7	–	–	–	–	–	–	–	–	–	poor inhibition	–	–	–	–
O=C(c1ccc(F)cc1)C1CCN(Cc2ccc(Br)cc2)CC1 [Compound 5, [1-(4-bromobenzyl)piperidin-4-yl] [4-fluorophenyl] methanone]	10 ± 0.3 (≈ 26.6 µM)	14.5 ± 1.34 (≈ 38.6 µM)	32.3 ± 4.17 (≈ 85.9 µM)	64.8	17.2 ± 0.97 (≈ 45.8 µM)	≥ 10	≥ 10	–	–	–	–	–	–	–	–	–	–	–
Cc1ccc(CN2CCC(C(=O)c3ccc(F)cc3)CC2)cc1 [Compound 6, [1-(4-methylbenzyl)piperidin-4-yl] [4-fluorophenyl] methanone]	13.6 ± 0.31 (≈ 43.8 µM)	12.8 ± 3.21 (≈ 40.9 µM)	37.1 ± 0.53 (≈ 119 µM)	59.1	19.1 ± 2.46 (≈ 61.3 µM)	≥ 10	≥ 10	–	–	–	–	–	–	–	–	–	–	–
OC(c1ccc(F)cc1)C1CCN(Cc2ccc(F)cc2)CC1 (centres unmarked) [Compound 7, [1-(4-fluorobenzyl)piperidin-4-yl] [4-fluorophenyl] methanol]	4 ± 0.67 (≈ 12.6 µM)	2.52 (≈ 7.94 µM)	17.7 ± 4.34 (≈ 55.8 µM)	81.3	14.6 ± 1.52 (≈ 46 µM)	–	–	375 (≈ 1180 µM)	93.67	148.34	121.01 ± 38.7	active	active	–	–	–	–	–
OC(c1ccc(F)cc1)C1CCN(Cc2ccc(Cl)c(Cl)c2)CC1 (centres unmarked) [Compound 8, [1-(3,4-dichlorobenzyl)piperidin-4-yl] [4-fluorophenyl] methanol]	4.43 ± 0.32 (≈ 12 µM)	1.3 (≈ 3.53 µM)	17.3 ± 3.27 (≈ 47.1 µM)	81.7	13.9 ± 1.25 (≈ 37.7 µM)	–	–	93.8 (≈ 255 µM)	21.14	71.67	46.41 ± 35.7	active	active	–	–	–	–	–
OC(c1ccc(F)cc1)C1CCN(Cc2ccc(Cl)cc2)CC1 (centres unmarked) [Compound 9, [1-(4-chlorobenzyl)piperidin-4-yl] [4-fluorophenyl] methanol]	1.53 ± 0.24 (≈ 4.58 µM)	1.67 ± 0.24 (≈ 5 µM)	16.1 ± 2.13 (≈ 48.2 µM)	93.2	16.1 ± 2.13 (≈ 48.2 µM)	–	–	250 (≈ 749 µM)	–	–	156.25 ± 9.5	active	active	–	–	–	–	–
O=[N+]([O-])c1ccccc1CN1CCC(C(O)c2ccc(F)cc2)CC1 (centres unmarked) [Compound 10, [1-(2-nitrobenzyl)piperidin-4-yl] [4-fluorophenyl] methanol]	13.5 ± 0.54 (≈ 39.3 µM)	14 ± 1.76 (≈ 40.6 µM)	35.3 ± 2.02 (≈ 102 µM)	79.7	19.11 ± 0.02 (≈ 55.5 µM)	≥ 10	≥ 10	–	–	–	–	–	–	–	–	–	–	–
OC(c1ccc(F)cc1)C1CCN(Cc2ccc(Br)cc2)CC1 (centres unmarked) [Compound 11, [1-(4-bromobenzyl)piperidin-4-yl] [4-fluorophenyl] methanol]	2.51 ± 0.3 (≈ 6.64 µM)	1.03 (≈ 2.72 µM)	27.8 ± 0.98 (≈ 73.5 µM)	85.6	16.8 ± 0.88 (≈ 44.4 µM)	–	–	188 (≈ 496 µM)	74.49	–	128.26 ± 76.1	active	active	–	–	–	–	–
Cc1ccc(CN2CCC(C(O)c3ccc(F)cc3)CC2)cc1 (centres unmarked) [Compound 12, [1-(4-methylbenzyl)piperidin-4-yl] [4-fluorophenyl] methanol]	3.37 ± 0.82 (≈ 10.8 µM)	2.78 ± 0.09 (≈ 8.87 µM)	10.2 ± 3.31 (≈ 32.5 µM)	83.1	15.7 (≈ 50.2 µM)	–	–	188 (≈ 598 µM)	55.52	67.39	61.46 ± 8.39	active	active	–	–	–	–	–
C=C[C@H]1C[N@@]2CC[C@H]1C[C@H]2[C@H](O)c1ccnc2ccc(OC)cc12 [QN, quinine, reference compound]	0.171 (≈ 0.527 µM)	0.127 (≈ 0.391 µM)	–	–	–	–	–	–	–	–	–	–	–	–	–	–	–	–
N-{[1-(4-bromobenzyl) piperidin-4-yl] [4-fluorophenyl] methyl}-3-bromobenzylamine [Compound 14]	–	–	–	–	–	–	–	–	163	–	–	active	active	86.0%	2.28 ± 0.64	11.31 ± 3.50	2.57 ± 1.64	16.21 ± 0.35
